Experimental data taken from US12516055B2, “Protein kinase inhibitors and uses thereof for the treatment of diseases and conditions” (University of Houston System, priority 2019, dated 2026).
Like-named read-outs stand apart in the source and are kept apart here. Marks after values point to notes of the source that are not given here.

How the values were obtained:
[1] = tested on: Hela-RIPK3 cells; conditions: Mandal et al. 2014, one cell under both toxicity columns; cited from earlier work
[2] = tested on: LPS/IDN-treated murine RAW264.7 macrophages; assay: Protection from necroptosis in LPS/IDN-treated RAW264.7 macrophages (CellTiter-Glo); assay type: cell-based
Method: (§2) IC50/LD50 values were determined for inhibition of recombinant RIPK3, inhibition of necroptosis in LPS/IDN-treated murine RAW264.7 macrophages and TNF/IDN-treated human Hela cells expressing RIPK3, RIPK3 binding by the inhibitors in live cells (NanoBRET assay), and induction of RIPK3-dependent apoptosis (i.e., on-target toxicity). Assays were performed using ADPGlo (kinase assay), CellTiter-Glo (viability), and NanoBRET (target engagement) assays.
(§3) After incubation with drugs, 15 μL of CellTiter-Glo reagent is added to the wells and incubated for 10 min Luminescence signals are determined using appropriate luminescence plate-reader (typical integration time 0.3 sec).

[3] = tested on: RIPK3 and MLKL phosphorylation; assay: RIPK3 and MLKL phosphorylation in RAW264.7 macrophages (Western blot, FIG. 31); assay type: cell-based; conditions: LPS 10 ng/ml + IDN6556 20 μM
Method: Necroptosis was induced by the combination of LPS (10 ng/ml) and pan-caspase inhibitor IDN6556 (20 μM). Note that LPS is a TLR4 ligand that, like TNF, can activate RIPK3 (and necroptosis) in the presence of a caspase inhibitor. The asterisk indicates a non-specific band sometimes see in pMLKL immunoblots. Samples are subjected to SDS-PAGE gele electrophoresis and Western blotting using RIPK3, phospho-Thr231/Ser232-RIPK3, MLKL and phospho-Ser345-MLKL antibodies (Abcam).

[4] = tested on: TNF/IDN-treated human Hela cells expressing RIPK3; assay: Protection from necroptosis in TNF/IDN-treated Hela-RIPK3 cells (CellTiter-Glo); assay type: cell-based
Method: as §2, §3

[5] = tested on: NOD2 cellular signaling; assay: NOD2 signaling assay in HEK-Blue cells (NFkB-SEAP reporter); assay type: cell-based; conditions: Homo sapiens, L18-MDP stimulated, read-out: EC50 HEK Blue (μM) RIPK2
Method: HEK-Blue cells expressing human NOD2 and NFkB-SAEP reporter (Invivogen) are seeded into 96 well clear plates at 7.5×10^3 cells per well in 100 μL of DMEM media supplemented with 10% FBS and 1% antibiotic-antimycotic mix. Cells are allowed to attach for 48 h in 5% CO2 tissue culture incubator at 37° C. On the morning of the experiment, media in the wells is replaced with 100 μL of HEK-Blue detection media (Invivogen). Cells are treated with the inhibitors, diluted in DMSO (0.5 μL per well) for […] in 5% CO2 tissue culture incubator at 37° C. After that, cells are stimulated by the addition of 1 ng/well L18-MDP (Invivogen). Cells are incubated in 5% CO2 tissue culture incubator at 37° C. for 8 h and absorbance, corresponding to the SEAP in the media, is determined in Wallac3V plate reader (Perkin Elmer). Inhibition, %=(1−((sample signal-unstimulated and DMSO treated cells)/(L18−MDP stimulated and DMSO treated cells−unstimulated and DMSO treated cells)))*100.
(§1) Prepared compounds were evaluated for their ability to inhibit RIPK2 and ALK2 enzyme activities and NOD2 cellular signaling using the methods described above.

[6] = biological target: T1, human ALK2 (Homo sapiens, UniProt Q04771); assay: ALK2 enzyme assay (33P-casein); assay type: biochemical; conditions: 10 μM ATP
T1 sequence (Q04771 21-509): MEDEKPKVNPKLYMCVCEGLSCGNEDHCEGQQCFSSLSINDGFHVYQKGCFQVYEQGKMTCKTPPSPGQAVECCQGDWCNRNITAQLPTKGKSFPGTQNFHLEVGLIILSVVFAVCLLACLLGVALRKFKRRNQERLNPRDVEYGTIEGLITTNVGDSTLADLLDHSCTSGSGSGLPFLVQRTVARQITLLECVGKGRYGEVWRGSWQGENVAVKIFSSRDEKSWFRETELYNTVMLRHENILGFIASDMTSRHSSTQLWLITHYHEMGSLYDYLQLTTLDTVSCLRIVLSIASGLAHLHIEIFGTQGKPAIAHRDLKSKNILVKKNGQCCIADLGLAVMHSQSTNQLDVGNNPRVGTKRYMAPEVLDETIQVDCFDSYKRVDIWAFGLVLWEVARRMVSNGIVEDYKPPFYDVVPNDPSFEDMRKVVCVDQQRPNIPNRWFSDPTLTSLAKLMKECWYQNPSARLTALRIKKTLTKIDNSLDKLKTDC
Method: Enzyme inhibitory activity was evaluated in a standard kinase enzyme assay by incubating human ALK2 with the protein substrate casein (1 mg/mL) and γ-^33ATP (10 μM) in the presence of various concentrations of test compounds (10 nM 100 μM). After 30 min the amount of ^33P-casein was determined.
as §1

[7] = biological target: T2, RIPK3 (Homo sapiens, UniProt Q9Y572); assay: Inhibition of recombinant RIPK3 (ADP-Glo kinase assay); assay type: biochemical; conditions: recombinant RIPK3, ADPGlo; read-out: Inhibition of RIPK3, RIPK3 protein IC50
T2 sequence (Q9Y572 whole entry, species assumed): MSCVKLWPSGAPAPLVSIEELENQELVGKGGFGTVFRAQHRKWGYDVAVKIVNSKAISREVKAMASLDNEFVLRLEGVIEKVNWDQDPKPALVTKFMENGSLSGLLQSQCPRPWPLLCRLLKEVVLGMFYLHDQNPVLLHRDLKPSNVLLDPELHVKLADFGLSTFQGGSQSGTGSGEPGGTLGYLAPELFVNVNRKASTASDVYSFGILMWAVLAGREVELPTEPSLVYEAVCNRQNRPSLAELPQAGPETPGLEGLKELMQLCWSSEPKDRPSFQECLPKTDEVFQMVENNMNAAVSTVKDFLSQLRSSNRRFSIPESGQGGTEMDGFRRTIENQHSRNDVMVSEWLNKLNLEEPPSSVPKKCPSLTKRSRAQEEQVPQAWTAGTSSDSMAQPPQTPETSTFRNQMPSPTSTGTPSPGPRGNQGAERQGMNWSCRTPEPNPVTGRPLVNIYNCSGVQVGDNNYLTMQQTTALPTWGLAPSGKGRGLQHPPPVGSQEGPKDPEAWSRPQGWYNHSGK
Method: as §2
(§4) For ADP-Glo assays, recombinant RIPK3 protein (20 ng per reaction) is diluted in the reaction buffer consisting of 50 mM HEPES, pH 7.5, 50 mM NaCl, 30 mM MgCl2, 1 mM DTT, 0.05% bovine serum albumin (BSA), 0.02% CHAPS. Diluted protein is added to low volume white 384 well plates (2 μL/well). […] Reactions are initiated by the addition of 2 μL of 100 μM ATP in the reaction buffer. Plates are sealed with plastic coverslips and incubated at room temperature for 4 h. Reactions are stopped by the addition of 5 μL of ADP-Glo reagent (Promega) and ADP generation reaction is performed for 40 mM at room temperature Luminescence signal is generated by the addition of 10 μL of Kinase detection reagent (Promega) for 30 mM at room temperature Luminescence signals are determined using appropriate luminescence plate-reader (typical integration time 0.3-1 sec). To calculate percent inhibition, average background signal is subtracted from test well and maximal signal wells. Inhibition, %=(1−(test signal/maximal signal))*100. The percent inhibition at a specified concentration is determined or IC50 values are calculated based on a dose range of inhibitor concentrations using non-linear regression in GraphPad Prism software. […] After incubation with drugs, 15 μL of CellTiter-Glo reagent is added to the wells and incubated for 10 min Luminescence signals are determined using appropriate luminescence plate-reader (typical integration time 0.3 sec). To calculate percent viability, Viability, %=(1−(test signal/maximal viability in the untreated wells))*100.

[8] = tested on: RAW264.7 cells
Method: as §2, §4

[9] = biological target: T2, RIPK3; assay: RIPK3 binding in live HEK cells (NanoBRET target engagement); design: expressed in transfected cells; host or cells: HEK cells
Method: as §2

[10] = tested on: Hela-RIPK3 cells
Method: as §2
For ADP-Glo assays, recombinant RIPK3 protein (20 ng per reaction) is diluted in the reaction buffer consisting of 50 mM HEPES, pH 7.5, 50 mM NaCl, 30 mM MgCl2, 1 mM DTT, 0.05% bovine serum albumin (BSA), 0.02% CHAPS. Diluted protein is added to low volume white 384 well plates (2 μL/well). […] Reactions are stopped by the addition of 5 μL of ADP-Glo reagent (Promega) and ADP generation reaction is performed for 40 mM at room temperature Luminescence signal is generated by the addition of 10 μL of Kinase detection reagent (Promega) for 30 mM at room temperature Luminescence signals are determined using appropriate luminescence plate-reader (typical integration time 0.3-1 sec). […] The percent inhibition at a specified concentration is determined or IC50 values are calculated based on a dose range of inhibitor concentrations using non-linear regression in GraphPad Prism software. […]

[11] = Mus musculus, LPS/IDN-treated RAW264.7 cells, read-out: Protection from necroptosis, RAW264.7 cells IC50

Structure (SMILES)	IC50 [7]	Toxicity, RAW264.7 cells LD50 [8]	IC50 [9]	further results
CC(C)S(=O)(=O)c1ccc2nccc(Nc3ccc4scnc4c3)c2c1 [GSK′872, reference compound]				Toxicity LD50 (published value) [1]: ~10* μM; IC50 ([2]; LPS/IDN-treated RAW264.7 cells, read-out: Protection from necroptosis, RAW264.7 cells IC50): 1.29 µM; Block of RIPK3 and MLKL phosphorylation [3]: block RIPK3 and MLKL phosphorylation; IC50 [4]: 3.21 µM
Cn1c(=O)c(-c2ccccc2Cl)cc2cnc(Nc3cccc(N4CCS(=O)(=O)CC4)c3)cc21 [UH15-28, 3-(2-chlorophenyl)-7-((3-(1,1-dioxidothiomorpholino)phenyl)amino)-1-methyl-1,6-naphthyridin-2(1H)-one]				EC50 [5]: 0.07 µM
CN1CCN(c2cccc(Nc3cc4c(cn3)cc(-c3ccccc3Cl)c(=O)n4C)c2)CC1 [UH15-37, 3-(2-chlorophenyl)-1-methyl-7-((3-(4-methylpiperazin-1-yl)phenyl)amino)-1,6-naphthyridin-2(1H)-one]				EC50 [5]: 0.05 µM; IC50 [6]: 32300 nM
CCN(CC)CCOc1ccc(Nc2ncc3cc(-c4ccccc4)c(=O)n(CC)c3n2)cc1 [compound 4]	0.3 µM	5.2 µM		IC50 ([2]; Mus musculus, RAW264.7, read-out: Protection from necroptosis, RAW264.7 cells IC50): 0.18 µM
CCN(CC)CCOc1ccc(Nc2ncc3cc(-c4c(Cl)cccc4Cl)c(=O)n(CCOC)c3n2)cc1 [compound 6]	0.02 µM		0.02 µM	
CCN(CC)CCOc1ccc(Nc2ncc3cc(-c4c(Cl)cccc4Cl)c(=O)n(CC(C)C)c3n2)cc1 [compound 10]	0.08 µM			
Cc1ccc(-c2cc3cnc(Nc4cccc(S(C)(=O)=O)c4)nc3n(C)c2=O)c(Cl)c1 [compound 20]	0.28 µM		0.95 µM	
CN1CCN(c2cccc(Nc3cc4c(cn3)cc(-c3ccccc3Cl)c(=O)n4C)c2)CC1 [compound 37]	0.05 µM	>10 µM	0.08 µM	IC50 [2, 11]: 0.25 µM; IC50 ([4]; Homo sapiens): 0.06 µM; Toxicity, Hela-RIPK3 cells LD50 [10]: >10 µM
CN1CCN(c2cccc(Nc3cc4c(cn3)cc(-c3cccc(O)c3)c(=O)n4C)c2)CC1 [compound 38]	0.01 µM	>10 µM	0.02 µM	IC50 [2, 11]: 0.02 µM
